From patent US8802671B2, “Quinoline derivatives as antibacterial agents” (Janssen Pharmaceutica NV, priority 2005, dated 2014)
≈ marks a conversion by molar mass, not a printed value.

What was measured:
[1] = test system: Staphylococcus aureus (ATCC29213); assay: Microtitre plate assay, IC90 determination; type: cell-based; settings: 90% inhibitory concentration for bacterial growth, 37° C., resazurin fluorescence; for IC90: Staphylococcus aureus, ATCC29213, 24 h, read-out: IC90 STA 29213; for IC90 STA 29213: 24 hours
Description: (§1) The bacteria used in this study were grown overnight in flasks containing 100 ml Mueller-Hinton Broth (Becton Dickinson—cat. no. 275730) in sterile de-ionized water, with shaking, at 37° C. Stocks (0.5 ml/tube) were stored at −70° C. until use. Bacteria titrations were performed in microtiter plates and colony forming units (CFUs) were determined. In general, an inoculum level of approximately 100 CFUs was used for susceptibility testing.
(§2) Anti Bacterial Susceptibility Testing: IC90 Determination
(§3) Flat-bottom, sterile 96-well plastic microtiter plates were filled with 180 μl of sterile deionized water, supplemented with 0.25% BSA. Subsequently, stock solutions (7.8× final test concentration) of compounds were added in 45 μl volumes in column 2. Serial five-fold dilutions (45 μl in 180 μl) were made directly in the microtiter plates from column 2 to reach column 11. Untreated control samples with (column 1) and without (column 12) inoculum were included in each microtiter plate. Depending on the bacteria type, approximately 10 to 60 CFU per well of bacteria inoculum (100 TCID50), in a volume of 100 μl in 2.8× Mueller-Hinton broth medium, was added to the rows A to H, except column 12. The same volume of broth medium without inoculum was added to column 12 in row A to H. The cultures were incubated at 37° C. for 24 hours under a normal atmosphere (incubator with open air valve and continuous ventilation). At the end of incubation, one day after inoculation, the bacterial growth was quantitated fluorometrically. Therefore resazurin (0.6 mg/ml) was added in a volume of 20 μl to all wells 3 hours after inoculation, and the plates were re-incubated overnight. A change in colour from blue to pink indicated the growth of bacteria. The fluorescence was read in a computer-controlled fluorometer (Cytofluor Biosearch) at an excitation wavelength of 530 nm and an emission wavelength of 590 nm. The % growth inhibition achieved by the compounds was calculated according to standard methods. The IC90 (expressed in μg/ml) was defined as the 90% inhibitory concentration for bacterial growth.

[2] = test system: Streptococcus pneumoniae (ATCC6305); assay: Microtitre plate assay, IC90 determination; type: cell-based; settings: 90% inhibitory concentration for bacterial growth; for IC90: read-out: IC90 SPN 6305
Description: as §1, §2, §3

[3] = test system: Bacillus subtilis (ATCC43639); assay: Microtitre plate assay, IC90 determination; type: cell-based; settings: 90% inhibitory concentration for bacterial growth; for IC90: read-out: IC90 BSU 43639
Description: as §1, §2, §3

[4] = test system: Enterococcus faecalis (ATCC29212); assay: Microtitre plate assay, IC90 determination; type: cell-based; settings: 90% inhibitory concentration for bacterial growth; for IC90: read-out: IC90 EFA 29212
Description: as §1, §2, §3

[5] = test system: Listeria monocytogenes (ATCC49594); assay: Microtitre plate assay, IC90 determination; type: cell-based; settings: 90% inhibitory concentration for bacterial growth; for IC90: read-out: IC90 LMO 49594
Description: as §1, §2, §3

[6] = test system: Pseudomonas aeruginosa (ATCC27853); assay: Microtitre plate assay, IC90 determination; type: cell-based; settings: 90% inhibitory concentration for bacterial growth; for IC90: read-out: IC90 PAE 27853
Description: as §1, §2, §3

[7] = test system: Staphylococcus aureus (ATCC25923); assay: Microtitre plate assay, IC90 determination; type: cell-based; settings: for IC90: Staphylococcus aureus, ATCC25923, 90% inhibitory concentration for bacterial growth, read-out: IC90 STA 25923; for IC90 STA 25923: 90% inhibitory concentration for bacterial growth
Description: as §1, §2, §3

[8] = test system: Streptococcus pyogens (ATCC8668); assay: Microtitre plate assay, IC90 determination; type: cell-based; settings: for IC90: Streptococcus, ATCC8668, 90% inhibitory concentration for bacterial growth, read-out: IC90 SPY 8668; for IC90 SPY 8668: 90% inhibitory concentration for bacterial growth
Description: as §1, §2, §3

[9] = test system: methicilline resistant Staphylococcus aureus (MRSA) (a clinical isolate from the University of Antwerp); assay: Microtitre plate assay, IC90 determination; type: cell-based; settings: 90% inhibitory concentration for bacterial growth; for IC90: Staphylococcus aureus, MRSA, read-out: IC90 STA RMETHIC
Description: as §1, §2, §3

[10] = test system: Streptococcus mutans (ATCC33402); assay: Microtitre plate assay, IC90 determination; type: cell-based; settings: 90% inhibitory concentration for bacterial growth, read-out: IC90 SMU 33402
Description: as §1, §2, §3

[11] = test system: Enterococcus faecalis (ATCC14506); assay: Microtitre plate assay, IC90 determination; type: cell-based; settings: 90% inhibitory concentration for bacterial growth; for IC90: read-out: IC90 EFA 14506
Description: as §1, §2, §3

melting point [°C] | IC90 [1] [mg/L] | IC90 [2] [mg/L] | IC90 [3] [mg/L] | IC90 [4] [mg/L] | IC90 [5] [mg/L] | IC90 [6] [mg/L] | IC90 [7] [mg/L] | IC90 [8] [mg/L] | Structure (SMILES) | IC90 [9] [mg/L] | further results
– | 7.43 (≈ 15.9 µM) | 7.43 (≈ 15.9 µM) | – | – | – | – | – | – | COc1nc2ccc(C(c3ccccc3)C(O)(CCCCN(C)C)c3ccccc3)cc2cc1C (single isomer, unassigned) [Compound 13] | – | –
– | 12.4 (≈ 25 µM) | 12.4 (≈ 25 µM) | 12.4 (≈ 25 µM) | 12.4 (≈ 25 µM) | 12.4 (≈ 25 µM) | 9.9 (≈ 20 µM) | 12.4 (≈ 25 µM) | 12.4 (≈ 25 µM) | CCc1cc2ccc(C(c3ccccc3)C(O)(CCN(C)C)c3cc(F)cc(F)c3)cc2nc1Cl (single isomer, unassigned) [Compound 10] | 12.4 (≈ 25 µM) | –
– | 1.53 (≈ 3.17 µM) | 1.53 (≈ 3.17 µM) | – | – | – | – | – | – | CCc1cc2cc(C(c3ccccc3)C(O)(CCCCN(C)C)c3ccccc3)ccc2nc1OC (single isomer, unassigned) [Compound 12] | – | –
– | 12.4 (≈ 25 µM) | 12.4 (≈ 25 µM) | 39.3 (≈ 79.4 µM) | 12.4 (≈ 25 µM) | 7.9 (≈ 16 µM) | 12.4 (≈ 25 µM) | 49.5 (≈ 100 µM) | 12.4 (≈ 25 µM) | CCc1cc2cc(C(c3ccccc3)C(O)(CCN(C)C)c3cc(F)cc(F)c3)ccc2nc1Cl (single isomer, unassigned) [Compound 11] | 49.5 (≈ 100 µM) | –
– | 12.8 (≈ 25.1 µM) | 12.8 (≈ 25.1 µM) | 12.8 (≈ 25.1 µM) | 12.8 (≈ 25.1 µM) | 12.8 (≈ 25.1 µM) | 12.8 (≈ 25.1 µM) | – | 12.8 (≈ 25.1 µM) | CCc1cc2cc(C(c3ccccc3)C(O)(CCN(C)C)c3cccc4ccccc34)ccc2nc1Cl (single isomer, unassigned) [Compound 6] | – | IC90 [11]: 11.4 mg/L (≈ 22.4 µM); IC90 STA 25923 [7]: 12.8 mg/L (≈ 25.1 µM); IC90 STA RMETHIC [9]: 50.9 mg/L (≈ 100 µM)

Further lines, the compound ahead of its results:

Structure (SMILES) | melting point [°C] | IC90 [1] [mg/L] | IC90 [2] [mg/L] | IC90 [3] [mg/L] | IC90 [4] [mg/L] | IC90 [5] [mg/L] | IC90 [6] [mg/L] | IC90 [7] [mg/L] | IC90 [8] [mg/L] | IC90 [9] [mg/L] | further results
CN(C)CC(c1cccc(F)c1)C(O)C(Cc1ccccc1)c1ccc2cc(Br)ccc2n1 (single isomer, unassigned) [Compound 4] | 179 | – | – | – | – | – | – | – | – | – | –
CN(C)CC(c1cccc(F)c1)C(O)C(Cc1ccccc1)c1ccc2cc(Br)ccc2n1 (single isomer, unassigned) [Compound 1] | 136 | 12.8 (≈ 25.2 µM) | 12.8 (≈ 25.2 µM) | – | 12.8 (≈ 25.2 µM) | 10.1 (≈ 19.9 µM) | 12.8 (≈ 25.2 µM) | 12.8 (≈ 25.2 µM) | 10.1 (≈ 19.9 µM) | 12.8 (≈ 25.2 µM) | IC90 [10]: 10.1 mg/L (≈ 19.9 µM)
CCc1cc2cc(C(c3ccccc3)C(O)(CCN(C)C)c3cccc4ccccc34)ccc2nc1Cl (single isomer, unassigned) [Compound 5] | – | – | – | – | – | – | – | – | – | – | IC90 BSU 43639 [3]: 12.8 mg/L (≈ 25.1 µM); IC90 EFA 14506 [11]: 11.4 mg/L (≈ 22.4 µM); IC90 EFA 29212 [4]: 12.8 mg/L (≈ 25.1 µM); IC90 LMO 49594 [5]: 12.8 mg/L (≈ 25.1 µM); IC90 PAE 27853 [6]: 12.8 mg/L (≈ 25.1 µM); IC90 STA 25923 [7]: 5.1 mg/L (≈ 10 µM); IC90 STA 29213 [1]: 12.8 mg/L (≈ 25.1 µM); IC90 SPN 6305 [2]: 12.8 mg/L (≈ 25.1 µM); IC90 SPY 8668 [8]: 12.8 mg/L (≈ 25.1 µM); IC90 STA RMETHIC [9]: 12.8 mg/L (≈ 25.1 µM)
CN(C)CC(c1cccc2ccccc12)C(O)C(Cc1ccccc1)c1ccc2cc(Br)ccc2n1 (single isomer, unassigned) [Compound 2] | 143 | 12.1 (≈ 22.4 µM) | 13.6 (≈ 25.2 µM) | 13.6 (≈ 25.2 µM) | 10.8 (≈ 20 µM) | 10.8 (≈ 20 µM) | 10.8 (≈ 20 µM) | 13.6 (≈ 25.2 µM) | 10.8 (≈ 20 µM) | 13.6 (≈ 25.2 µM) | IC90 [11]: 12.1 mg/L (≈ 22.4 µM); IC90 [10]: 10.8 mg/L (≈ 20 µM)
CN(C)CC(c1cccc2ccccc12)C(O)C(Cc1ccccc1)c1ccc2cc(Br)ccc2n1 (single isomer, unassigned) [Compound 3] | 69 | – | – | – | – | – | – | – | – | – | –
CCc1cc2ccc(C(c3ccccc3)C(O)(CCN(C)C)c3cc(F)cc(F)c3)cc2nc1Cl (single isomer, unassigned) [Compound 9] | – | – | – | – | – | – | – | – | – | – | IC90 BSU 43639 [3]: 12.4 mg/L (≈ 25 µM); IC90 [11]: 11.1 mg/L (≈ 22.4 µM); IC90 EFA 29212 [4]: 12.4 mg/L (≈ 25 µM); IC90 LMO 49594 [5]: 12.4 mg/L (≈ 25 µM); IC90 PAE 27853 [6]: 9.9 mg/L (≈ 20 µM); IC90 STA 25923 [7]: 12.4 mg/L (≈ 25 µM); IC90 STA 29213 [1]: 11.1 mg/L (≈ 22.4 µM); IC90 [10]: 9.9 mg/L (≈ 20 µM); IC90 SPN 6305 [2]: 12.4 mg/L (≈ 25 µM); IC90 SPY 8668 [8]: 9.9 mg/L (≈ 20 µM); IC90 STA RMETHIC [9]: 12.4 mg/L (≈ 25 µM)
